Structures can show the parent of a compound that is named as a salt.
Test system: human primary melanocytes from skin type IV
Assay: total intracellular melanin production in human primary melanocytes (depigmentation)
Format: cell-based
Conditions: Naloxone 1 × 10^−4 M, 4 days, absorption of cell lysates at 475 nm, duplicate
Method: Normal human melanocytes were cultured from freshly excised foreskin of skin type IV and treated with Dispase (ready-to-use, Roche) overnight at 4° C. Melanocytes dissociated from the epidermis were plated in culture flasks at high density using Melanocyte Growth Medium M2 (Promocell) supplemented with the corresponding growth factors (Promocell). These primary cells were cultivated under 100% humidity and 5% CO2 at 37° C. At the second passage, melanocytes were transferred to 6 well plates and allowed to reach 80% surface confluence.
Medium was renewed on day two of the experiment. Cells were harvested, counted and lysed in 1N NaOH using vigorous vortexing and a 30 minute incubation in an ultrasound bath. Melanin content was determined by measuring the absorption of cell lysates at 475 nm. Values were calibrated against a standard curve based on synthetic melanin (Sigma). The amount of melanin per 1 million cells is reported. Each treatment was run in duplicate.

Row | SMILES | Melanin (μg/10^6 cells)
1 | C=CCN1CC[C@]23c4c5ccc(O)c4O[C@H]2C(=O)CC[C@@]3(O)[C@H]1C5 [Naloxone] | 1.05

Same assay, conditions: Naloxone 1 × 10^−4 M, 4 days, versus control

Row | SMILES | Reduction of mean melanin content [%]
2 | C=CCN1CC[C@]23c4c5ccc(O)c4O[C@H]2C(=O)CC[C@@]3(O)[C@H]1C5 [Naloxone] | 86

Same assay, conditions: Naloxone 5 × 10^−6 M, 4 days, versus control

Row | SMILES | Reduction of mean melanin content [%]
3 | C=CCN1CC[C@]23c4c5ccc(O)c4O[C@H]2C(=O)CC[C@@]3(O)[C@H]1C5 [Naloxone] | 78

Same assay, conditions: result in words

Row | SMILES | intracellular melanin content compared to the control
4 | C=CCN1CC[C@]23c4c5ccc(O)c4O[C@H]2C(=O)CC[C@@]3(O)[C@H]1C5 [Naloxone] | dramatically reduces intracellular melanin content

Biological target: T1, μ-opioid receptor (Homo sapiens, UniProt P35372)
T1 construct: purchased Perkin Elmer; host or cells: CHO cells (recombinant overexpression; membrane preparation)
T1 sequence (P35372 whole entry): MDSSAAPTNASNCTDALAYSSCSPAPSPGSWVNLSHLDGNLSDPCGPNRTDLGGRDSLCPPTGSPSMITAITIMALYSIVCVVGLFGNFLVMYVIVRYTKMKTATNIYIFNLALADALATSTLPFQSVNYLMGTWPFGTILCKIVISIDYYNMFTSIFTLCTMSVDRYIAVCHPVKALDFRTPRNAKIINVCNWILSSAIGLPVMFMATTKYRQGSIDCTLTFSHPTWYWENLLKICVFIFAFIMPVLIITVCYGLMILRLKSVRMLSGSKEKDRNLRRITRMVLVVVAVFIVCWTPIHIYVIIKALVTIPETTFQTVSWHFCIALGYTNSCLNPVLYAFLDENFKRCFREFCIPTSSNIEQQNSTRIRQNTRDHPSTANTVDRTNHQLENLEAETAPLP
Assay: μ-opioid receptor binding assay and GTP-recruitment assay (screening for antagonists)
Format: biochemical
Conditions: [3H] DAMGO binding and DAMGO/GTP-Eu recruitment, membranes from CHO cells overexpressing the receptor; result in words
Method: […] DAMGO (Amersham) in 50 mM Tris HCl pH 7.4 (Sigma), 10 mM MgCl2 (Sigma) and 0.2% BSA (Sigma) in the presence of the negative control DMSO (Fluka) or the test compounds. The incubation mixture was transferred to filter plates (Perkin Elmer), the liquid aspirated through the application of a vacuum from the bottom and the plate washed twice with PBS (Invitrogen). The plate was allowed to dry, 35 μl of scintillation cocktail (Ultima Gold, Perkin Elmer) added, sealed and placed on a TopCount (Packard) for scintillation counting.
[…] The incubation mixture was transferred to filter plates (Perkin Elmer), the liquid aspirated through the application of a vacuum from the bottom and the plate washed twice with PBS (Invitrogen) and allowed to dry. Plates were read in an Analyst reader (LJL Biosystems).

Row | SMILES | identified as opioid receptor antagonist in the screening
5 | COC1=C(OC)C(=O)C=CC1=O [2,3-Dimethoxy-1,4-benzoquinone] | opioid receptor antagonists
6 | COC1=C(OC)C(=O)C(C)=CC1=O [2,3-Dimethoxy-5-methyl-1,4-benzoquinone] | opioid receptor antagonists
7 | COc1c(O)cc(C)c(O)c1OC [2,3-Dimethoxy-5-methylhydroquinone] | opioid receptor antagonists
8 | COc1c(O)ccc(O)c1OC [2,3-Dimethoxyhydroquinone] | opioid receptor antagonists
9 | O=C(/C=C/c1ccc(O)c(O)c1)c1ccc(O)c(O)c1O [2′,3′,4′,3,4-Pentahydroxychalcone] | opioid receptor antagonists
10 | O=C1/C(=C/c2ccc(O)c(O)c2)Oc2cc(O)cc(O)c21 [Aureusidin] | opioid receptor antagonists
11 | Oc1cc(O)c2cc(O)c(-c3cc(O)c(O)c(O)c3)[o+]c2c1 [Delphinidin chloride] | opioid receptor antagonists
12 | O=C(Oc1cc(O)cc2c1C[C@@H](OC(=O)c1cc(O)c(O)c(O)c1)[C@@H](c1cc(O)c(O)c(O)c1)O2)c1cc(O)c(O)c(O)c1 [Epigallocatechin 3,5-Digallate] | opioid receptor antagonists
13 | CC(=O)Oc1cc(-c2coc3cc(OC(C)=O)c(OC(C)=O)c(OC(C)=O)c3c2=O)cc(OC(C)=O)c1OC(C)=O [Irigenol Hexaacetate] | opioid receptor antagonists
14 | O=c1c(-c2cc(O)c(O)c(O)c2)coc2cc(O)c(O)c(O)c12 [Irigenol ex Iris spp] | opioid receptor antagonists
15 | C/C1=C\CCC(C)(O)/C=C/C(C(C)C)CC/C(C)=C/CC1 (stereo not shown) [Isocembrol] | opioid receptor antagonists
16 | O=c1c(O)c(-c2ccc(O)c(O)c2)oc2cc(O)c(O)c(O)c12 [Quercetagetin] | opioid receptor antagonists
17 | O=c1c(O)c(-c2cc(O)c(O)c(O)c2)oc2cc(O)ccc12 [Robinetin] | opioid receptor antagonists
18 | CC(C)=CCC(OC(=O)C=C(C)C)C1=CC(=O)c2c(O)ccc(O)c2C1=O (stereo not drawn) [beta,beta-Dimethylacryl shikonin] | opioid receptor antagonists

Same assay, conditions: [3H] DAMGO binding and DAMGO/GTP-Eu recruitment, membranes from CHO cells overexpressing the receptor; result in words; Hydrochloride

Row | SMILES | identified as opioid receptor antagonist in the screening
19 | COc1cc2c3cc1Oc1c(OC)c(OC)cc4c1[C@@H](Cc1cccc(c1)Oc1ccc(c(O)c1)C[C@@H]3N(C)CC2)N(C)CC4 [Berbamine Hydrochloride] | opioid receptor antagonists

Source: patent US20090041687A1 (priority 2005, published 2009)
